Data: patent publication US20110046223A1, “TREATMENT OF NEUROFIBROMATOSIS” (RAMOT AT TEL-AVIV UNIVERSITY LTD., priority 2006, published 2011)

Legend:
[1] = tested on: total ERK, total Akt, or total RalA; experiment: total ERK, total Akt, total RalA, Western immunoblotting; type: cell-based, human; details: NF-1 cell lines
Experimental: Unless otherwise indicated, cells were lysed 48 hours after being treated with lysis buffer, as described in Haklai, et al., supra. […] Protein bands were visualized by ECL and quantified by densitometry with Image Master VDS-CL (Amersham) using TINA 2.0 software (Ray Tests). To obtain reliable comparisons between replicated experiments for statistical analysis, a standardization procedure was used, in which the density of each given protein band as recorded with its specific Ab, was normalized. […] The standard average density was defined as 1.0, and each of the individually determined bands was related to this value. […] Actin cytoskeletal elements were labeled with rhodamine-phalloidin, and digital fluorescence images were collected on a Zeiss LSM 510 confocal microscope fitted with fluorescein and rhodamine filters, as described in Gana-Weisz, M., et al., supra.
Next, to determine whether down-regulation of active Ras by FTS was accompanied by inhibition of Ras signaling, the effect of FTS on steady-state levels of phospho-ERK, phospho-Akt, and RalA-GTP as read-outs of the three prominent Ras pathways, Ras/Raf/MEK/ERK, Ras/PI3K/Akt, and Ras/RalGEF/RalA, respectively, was examined. […]

ST88-14 cells = experiment: ST88-14 tumor growth in nude mice; type: in vivo, nude CD1-Nu male mice; details: six weeks
Experimental: ST88-14 cells (5×10^6) in Matrigel were implanted subcutaneously (s.c.) just above the right femoral joint of nude CD1-Nu male mice (6 weeks old). Two weeks later palpable tumors were observed and the mice were separated randomly into vehicle-treated control and FTS-treated groups. Two types of treatment protocols were used. (1) The first protocol was intraperitoneal (i.p.) administration (0.1 mL) of vehicle, 1 mg/kg, 5 mg/kg or 10 mg/kg FTS (n=6 per group). The FTS solution was prepared in saline containing phosphate buffer as described in Haklai, et al., supra. (2) The second protocol was oral administration of FTS. Mice received vehicle or 20, 40, 60, or 80 mg/kg FTS (n=10 per group). The FTS mixture for oral administration was prepared in PBS/0.5% carboxymethyl cellulose. Mice were sacrificed 6 weeks after the start of the treatment, and tumors were removed and weighed. Student's t-test was used for data analysis.
[Ozerdem, U., Angiogenesis 7:307-11 (2004)]. Thus, to determine whether FTS inhibited tumor growth in the nude mouse model, two types of treatments were preformed. The first was i.p. administration of 1, 5, or 10 mg/kg FTS, as earlier described. [Weisz, B., et al., supra.]. The second was oral administration, which required higher FTS doses of 20, 40, 60, and 80 mg/kg. Six weeks after the treatment the mice were sacrificed and tumors were removed and weighed.

STS26T cells = experiment: cell growth, direct counting of cells, FTS dose-response; type: cell-based; details: Homo sapiens, STS-26T, 72 h, grown three days, FTS 12.5-100 μM, means±SD, n=4, read-out: estimated IC50, decrease in cell number
Experimental: The human NF-1 MPNST cell lines ST88-14, T265P21 and 90-8 and the non-NF-1 human MPNST cell line STS26T were obtained from Dr. Nancy Ratner. T265P21, 90-8, and ST88-14 cells were maintained in RPMI/15% fetal calf serum (FCS) medium and STS26T cells were maintained in DMEM/10% FCS, as described in Weisz, B., et al., supra. Cells were plated at a density of 1×10^6 cells per 10-cm plate for biochemical and immunoblotting assays, 2.5×10^3 cells/well in 24-well plates for cell-growth assays, or on glass cover slips (5×10^4 cells per 35-mm dish) for labeling of actin cytoskeletal elements. The cells were incubated for 24 hours, treated with the indicated concentration of FTS or with the vehicle (0.1% DMSO) (control) for the times specified in each of the experiments, and then subjected to the various assays as described below. The effect of FTS on cell growth was estimated by direct counting of cells collected from each well, as described in Weisz, B., et al., supra.
To determine the effects of the Ras inhibitor FTS on the growth rates of the NF-1 cell lines ST88-14, 90-8, T265P21 and the non-NF-1 STS26T cells, the cells were grown for two days in the absence and in the presence of 50 μM FTS, and then photomicrographed. […] Additionally, cells were grown for three days and then detached, collected, and counted as described in Methods to determine dose-dependent inhibition by FTS.

CC(C)=CCC/C(C)=C/CC/C(C)=C/CSc1ccccc1C(=O)O [FTS, S-farnesylthiosalicylic acid]
amounts of total ERK, total Akt, or total RalA [1]: did not affect
inhibition of tumor growth (tumor weight) (ST88-14 cells; i.p., 10 mg/kg FTS, P<0.05): 49%
tumor growth, dose dependence (ST88-14 cells; i.p., 1, 5, or 10 mg/kg FTS): dose-dependent inhibition of tumor growth
inhibition of tumor growth (tumor weight) (ST88-14 cells; oral, 80 mg/kg FTS, P<0.01): 58%
tumor growth, dose dependence (ST88-14 cells; oral, 20, 40, 60, and 80 mg/kg FTS): dose-dependent inhibition of tumor growth
IC50 (STS26T cells): 53 ± 10 µM
